Source: PubChem BioAssay AID1259407 (Chemical Carcinogenesis Research Information System (CCRIS), 2018)
The source made the active and inactive calls. No rule for the calls is given here.

System: CCRIS mutagenicity, Ames/micronucleus/aberration tests
Test: CCRIS mutagenicity studies
[1] = Test System: AMES SALMONELLA TYPHIMURIUM, Strain/Indicator: TA100, Metabolic Activation: RAT, LIVER, S-9, AROCLOR 1254, Method: STANDARD PLATE
[2] = Test System: AMES SALMONELLA TYPHIMURIUM, Strain/Indicator: TA1535, Metabolic Activation: NONE, Method: STANDARD PLATE
[3] = Test System: AMES SALMONELLA TYPHIMURIUM, Strain/Indicator: TA98, Metabolic Activation: NONE, Method: STANDARD PLATE
[4] = Test System: AMES SALMONELLA TYPHIMURIUM, Strain/Indicator: TA100, Metabolic Activation: NONE, Method: STANDARD PLATE
[5] = Test System: AMES SALMONELLA TYPHIMURIUM, Strain/Indicator: TA1537, Metabolic Activation: NONE, Method: STANDARD PLATE

## COc1ccccc1[N+](=O)[O-]
End Point: IN VITRO CHROMOSOMAL ABERRATIONS, Test System: CHINESE HAMSTER OVARY CELLS, Metabolic Activation: RAT, LIVER, S-9, AROCLOR 1254
  mutagenic call: active; positive; precipitation occurred at all doses
End Point: IN VITRO CHROMOSOMAL ABERRATIONS, Test System: CHL CELLS, Metabolic Activation: RAT, LIVER, S-9, SODIUM PHENOBARBITAL AND 5,6-BENZOFLAVONE
  mutagenic call: active; positive (structural changes)
Test System: AMES SALMONELLA TYPHIMURIUM, Strain/Indicator: TA97, Metabolic Activation: HAMSTER LIVER S-9, AROCLOR 1254 (10%), Method: PREINCUBATION
  mutagenic call: inactive; negative
Test System: AMES SALMONELLA TYPHIMURIUM, Strain/Indicator: TA97, Metabolic Activation: NONE, Method: PREINCUBATION
  mutagenic call: inactive; negative
Test System: AMES SALMONELLA TYPHIMURIUM, Strain/Indicator: TA97, Metabolic Activation: RAT LIVER S-9, AROCLOR 1254 (10%), Method: PREINCUBATION
  mutagenic call: inactive; negative
Test System: AMES SALMONELLA TYPHIMURIUM, Strain/Indicator: TA98, Metabolic Activation: HAMSTER LIVER S-9, AROCLOR 1254 (10%), Method: PREINCUBATION
  mutagenic call: inactive; negative
Test System: AMES SALMONELLA TYPHIMURIUM, Strain/Indicator: TA98, Metabolic Activation: RAT LIVER S-9, AROCLOR 1254 (10%), Method: PREINCUBATION
  mutagenic call: inactive; negative
Test System: AMES SALMONELLA TYPHIMURIUM, Strain/Indicator: TA98, Metabolic Activation: RAT LIVER S-9, PHENOBARBITAL AND BETA-NAPHTHOFLAVONE, Method: PREINCUBATION
  mutagenic call: inactive; negative
Test System: AMES SALMONELLA TYPHIMURIUM, Strain/Indicator: TA98, Metabolic Activation: RAT, LIVER, S-9, KANECHLOR 500, Method: PREINCUBATION
  mutagenic call: inactive; negative
Test System: AMES SALMONELLA TYPHIMURIUM, Strain/Indicator: TA100, Metabolic Activation: HAMSTER LIVER S-9, AROCLOR 1254 (10%), Method: PREINCUBATION
  mutagenic call: active; positive
Test System: AMES SALMONELLA TYPHIMURIUM, Strain/Indicator: TA100, Metabolic Activation: HAMSTER, LIVER, S-9, AROCLOR 1254, FLAVIN MONONUCLEOTIDE, Method: PREINCUBATION
  mutagenic call: inactive; negative
Test System: AMES SALMONELLA TYPHIMURIUM, Strain/Indicator: TA100, Metabolic Activation: HAMSTER, LIVER, S-9, AROCLOR 1254, Method: PREINCUBATION
  mutagenic call: inactive; negative
Test System: AMES SALMONELLA TYPHIMURIUM, Strain/Indicator: TA100, Metabolic Activation: RAT LIVER S-9, AROCLOR 1254 (10%), Method: PREINCUBATION
  mutagenic call: active; positive
Test System: AMES SALMONELLA TYPHIMURIUM, Strain/Indicator: TA100, Metabolic Activation: RAT LIVER S-9, PHENOBARBITAL AND BETA-NAPHTHOFLAVONE, Method: PREINCUBATION
  mutagenic call: active; positive
Test System: AMES SALMONELLA TYPHIMURIUM, Strain/Indicator: TA100, Metabolic Activation: RAT, LIVER, S-9, AROCLOR 1254, FLAVIN MONONUCLEOTIDE, Method: PREINCUBATION
  mutagenic call: inactive; negative
[1]
  mutagenic call: active; positive
Test System: AMES SALMONELLA TYPHIMURIUM, Strain/Indicator: TA100, Metabolic Activation: RAT, LIVER, S-9, KANECHLOR 500, Method: PREINCUBATION
  mutagenic call: active; positive
Test System: AMES SALMONELLA TYPHIMURIUM, Strain/Indicator: TA1535, Metabolic Activation: HAMSTER LIVER S-9, AROCLOR 1254 (10%), Method: PREINCUBATION
  mutagenic call: inactive; negative
Test System: AMES SALMONELLA TYPHIMURIUM, Strain/Indicator: TA1535, Metabolic Activation: NONE, Method: PREINCUBATION
  mutagenic call: inactive; negative
Test System: AMES SALMONELLA TYPHIMURIUM, Strain/Indicator: TA1535, Metabolic Activation: RAT LIVER S-9, AROCLOR 1254 (10%), Method: PREINCUBATION
  mutagenic call: inactive; negative
Test System: AMES SALMONELLA TYPHIMURIUM, Strain/Indicator: TA1535, Metabolic Activation: RAT LIVER S-9, PHENOBARBITAL AND BETA-NAPHTHOFLAVONE, Method: PREINCUBATION
  mutagenic call: inactive; negative
Test System: AMES SALMONELLA TYPHIMURIUM, Strain/Indicator: TA1537, Metabolic Activation: HAMSTER LIVER S-9, AROCLOR 1254 (10%), Method: PREINCUBATION
  mutagenic call: inactive; negative
Test System: AMES SALMONELLA TYPHIMURIUM, Strain/Indicator: TA1537, Metabolic Activation: NONE, Method: PREINCUBATION
  mutagenic call: inactive; negative
Test System: AMES SALMONELLA TYPHIMURIUM, Strain/Indicator: TA1537, Metabolic Activation: RAT LIVER S-9, AROCLOR 1254 (10%), Method: PREINCUBATION
  mutagenic call: inactive; negative
Test System: AMES SALMONELLA TYPHIMURIUM, Strain/Indicator: TA1537, Metabolic Activation: RAT LIVER S-9, PHENOBARBITAL AND BETA-NAPHTHOFLAVONE, Method: PREINCUBATION
  mutagenic call: inactive; negative
Test System: AMES SALMONELLA TYPHIMURIUM, Strain/Indicator: TA1538, Metabolic Activation: NONE, Method: PREINCUBATION
  mutagenic call: active; positive
Test System: E.COLI, Strain/Indicator: WP2UVRA, Metabolic Activation: NONE, Method: PREINCUBATION
  mutagenic call: inactive; negative
Test System: E.COLI, Strain/Indicator: WP2UVRA, Metabolic Activation: RAT LIVER S-9, PHENOBARBITAL AND BETA-NAPHTHOFLAVONE, Method: PREINCUBATION
  mutagenic call: inactive; negative

## FC(F)(F)c1ccc(Cl)nc1
Test System: MOUSE LYMPHOMA, Strain/Indicator: L5178Y (TK+/TK-), Metabolic Activation: NONE
  mutagenic call: active; positive
Test System: MOUSE LYMPHOMA, Strain/Indicator: L5178Y (TK+/TK-), Metabolic Activation: RAT, LIVER, S-9, AROCLOR 1254
  mutagenic call: active; positive

## O=[Se](=O)(O)O
[2]
  mutagenic call: active; positive
Test System: AMES SALMONELLA TYPHIMURIUM, Strain/Indicator: TA1535, Metabolic Activation: NONE, Method: STANDARD PLATE (MEDIUM WITH TRIMETAPHOSPHATE IONS)
  mutagenic call: active; positive
Test System: UDS HUMAN FIBROBLASTS, Strain/Indicator: THY INCORP (NON-S-PHASE), Metabolic Activation: MOUSE, LIVER, S-9, Method: AUTORADIOGRAPHY
  mutagenic call: active; positive
Test System: UDS HUMAN FIBROBLASTS, Strain/Indicator: THY INCORP (NON-S-PHASE), Metabolic Activation: NONE, Method: AUTORADIOGRAPHY
  mutagenic call: active; positive

## C(=Nc1ccccc1)c1cccc2cccnc12
[3]
  mutagenic call: inactive; negative
Test System: AMES SALMONELLA TYPHIMURIUM, Strain/Indicator: TA98, Metabolic Activation: RAT, LIVER, S-9, AROCLOR 1254, Method: STANDARD PLATE
  mutagenic call: inactive; negative
[4]
  mutagenic call: inactive; negative
[1]
  mutagenic call: active; positive
[2]
  mutagenic call: inactive; negative
Test System: AMES SALMONELLA TYPHIMURIUM, Strain/Indicator: TA1535, Metabolic Activation: RAT, LIVER, S-9, AROCLOR 1254, Method: STANDARD PLATE
  mutagenic call: inactive; negative
[5]
  mutagenic call: inactive; negative
Test System: AMES SALMONELLA TYPHIMURIUM, Strain/Indicator: TA1537, Metabolic Activation: RAT, LIVER, S-9, AROCLOR 1254, Method: STANDARD PLATE
  mutagenic call: inactive; negative

## COc1c(C(=O)O)c(=O)[nH]c2ccccc12
[3]
  mutagenic call: inactive; negative
Test System: AMES SALMONELLA TYPHIMURIUM, Strain/Indicator: TA98, Metabolic Activation: RAT LIVER S-9, PHENOBARTITAL, Method: STANDARD PLATE
  mutagenic call: inactive; negative

## Cc1ccc(N=Nc2c(O)ccc3ccccc23)cc1
[3]
  mutagenic call: inactive; negative
Test System: AMES SALMONELLA TYPHIMURIUM, Strain/Indicator: TA98, Metabolic Activation: RAT, LIVER, S-9, Method: STANDARD PLATE
  mutagenic call: inactive; negative
[4]
  mutagenic call: inactive; negative
Test System: AMES SALMONELLA TYPHIMURIUM, Strain/Indicator: TA100, Metabolic Activation: RAT, LIVER, S-9,, Method: STANDARD PLATE
  mutagenic call: inactive; negative

## CS(=O)CCC(=O)N1[C@@H](c2ccccc2O)SC[C@H]1C(=O)O (some centres undefined)
[3]
  mutagenic call: inactive; negative
[4]
  mutagenic call: inactive; negative
[2]
  mutagenic call: inactive; negative
[5]
  mutagenic call: inactive; negative
Test System: AMES SALMONELLA TYPHIMURIUM, Strain/Indicator: TA1538, Metabolic Activation: NONE, Method: STANDARD PLATE
  mutagenic call: inactive; negative
Test System: E. COLI, Strain/Indicator: WP2, Metabolic Activation: NONE, Method: STANDARD PLATE
  mutagenic call: inactive; negative
Test System: E. COLI, Strain/Indicator: WP2 UVRA, Metabolic Activation: NONE, Method: STANDARD PLATE
  mutagenic call: inactive; negative

## CS(C)=O.[Cl-].[Cl-].[Pt+2].c1ccncc1
Test System: AMES SALMONELLA TYPHIMURIUM, Strain/Indicator: TA92, Metabolic Activation: NONE, Method: STANDARD PLATE
  mutagenic call: inactive; negative
[3]
  mutagenic call: inactive; negative
[4]
  mutagenic call: inactive; negative
Test System: AMES SALMONELLA TYPHIMURIUM, Strain/Indicator: TA2410, Metabolic Activation: NONE, Method: STANDARD PLATE
  mutagenic call: inactive; negative
